# Data from patent US5362747A, “2-nitroaryl and 2-cyanoaryl compounds as regulators of nitric oxide synthase” (Abbott Laboratories, priority 1993, dated 1994).
# Tests used:
# Type I (rat brain) NOS = biological target: T1, Type I (rat brain) NOS (Rattus norvegicus, UniProt P29476); assay: [3H]-arginine to [3H]-citrulline conversion, Type I (rat brain) NOS; format: biochemical; conditions: rat brain cerebellum NOS, 25° C.; for inhibition at 100 µM: read-out: Type I % inhib. @ 100 μM
# T1 construct: isolated from rat brain cerebellum cells partially purified on a phosphocellulose column; from tissue; host or cells: rat brain cerebellum, partially purified on phosphocellulose
# Type II (macrophage) NOS = biological target: T2, Type II (macrophage) NOS (Mus musculus, UniProt P29477); assay: [3H]-arginine to [3H]-citrulline conversion, Type II (macrophage) NOS; format: biochemical, murine; conditions: cytosolic NOS from LPS-induced RAW 264.7 cells, 25° C.; for inhibition at 100 µM: read-out: Type II % inhib. @ 100 μM
# T2 construct: cytosolic preparations of NO synthase (type II isoform) were prepared from RAW 264.7 cells; endogenous in cells; host or cells: RAW 264.7 cells, induced 16 hours with lipopolysaccharide; cytosolic preparation
# Excerpt: The enzyme NO synthase produces EDRF/NO and citrulline from L-arginine (Bredt and Snyder, Proc. Nat'l Acad Sci USA, 1989, 87: 682-5). The enzymatic generation of EDRF/NO is monitored by measuring the conversion of [^3 H]-L-arginine to [^3 H]-L-citrulline. An inhibitor of this specific enzymatic reaction lowers the conversion rate and, thus, the amount of [^3 H]-L-citrulline produced. Likewise, a compound acting as a substrate would compete with L-arginine and thereby lower the conversion rate.
# The conversion of L-arginine to L-citrulline was assayed as reported previously (Bredt and Snyder, Proc. Nat'l Acad Sci USA, 1989, 87: 682-5) with minor modifications. Briefly, samples of partially purified NO synthase, […] of partially purified NO synthase or, alternately, […] of a cytosolic preparation of NO synthase. The type 1 isoform of NO synthase was isolated from rat brain cerebellum cells partially purified on a phosphocellulose column. The cytosolic preparations of NO synthase (type II isoform) were prepared from RAW 264.7 cells (a murine monocyte-macrophage cell line), induced for 16 hours with […] medium of lipopolysaccharide (LPS). Another enzyme isoform (type III)is known to be present in bovine endothelial cells (BAE cells), and can be utilized if an additional assay is desired. The samples of enzyme were incubated for 20 minutes (3 minutes in the cases of purified enzyme preparations) at 25° C. in the presence of […] L-[2,3-^3 H]arginine (55 Ci /mmol) (containing 34 nM (0.2 mCi)), 1 mM NADPH, 100 nM calmodulin, 2 mM CaCl2, and with varying concentrations of inhibitors, in a final volume of […]. The reaction was stopped by adding 1 mL of stop buffer (2 mM EGTA, 2 mM EDTA, 20 mM HEPES, pH 5.5). The total volume was then applied to a 1 mL Dowex AG 50WX-8 column (Na^+ form, BioRad) that had been pre-equilibrated with the stop buffer. L-[2,3-^3 H]Citrulline was eluted (2×) with 0.5 mL of stop buffer and radioactivity was determined by liquid scintillation counting. The L-[2,3-^3 H]arginine (Dupont, NEN) was purified prior to use on Dowex AG-1-X8 (CH3 CO2 -- form, Bio-Rad), eluted with distilled water, acidified, concentrated on a Speed-Vac (Savant) and stored at -20° C.
# bovine coronary artery = conditions: cited from earlier work
# NO synthase enzyme = conditions: cited from earlier work
# EDRF (NO) production = conditions: cited from earlier work
# T1 sequence (P29476 whole entry): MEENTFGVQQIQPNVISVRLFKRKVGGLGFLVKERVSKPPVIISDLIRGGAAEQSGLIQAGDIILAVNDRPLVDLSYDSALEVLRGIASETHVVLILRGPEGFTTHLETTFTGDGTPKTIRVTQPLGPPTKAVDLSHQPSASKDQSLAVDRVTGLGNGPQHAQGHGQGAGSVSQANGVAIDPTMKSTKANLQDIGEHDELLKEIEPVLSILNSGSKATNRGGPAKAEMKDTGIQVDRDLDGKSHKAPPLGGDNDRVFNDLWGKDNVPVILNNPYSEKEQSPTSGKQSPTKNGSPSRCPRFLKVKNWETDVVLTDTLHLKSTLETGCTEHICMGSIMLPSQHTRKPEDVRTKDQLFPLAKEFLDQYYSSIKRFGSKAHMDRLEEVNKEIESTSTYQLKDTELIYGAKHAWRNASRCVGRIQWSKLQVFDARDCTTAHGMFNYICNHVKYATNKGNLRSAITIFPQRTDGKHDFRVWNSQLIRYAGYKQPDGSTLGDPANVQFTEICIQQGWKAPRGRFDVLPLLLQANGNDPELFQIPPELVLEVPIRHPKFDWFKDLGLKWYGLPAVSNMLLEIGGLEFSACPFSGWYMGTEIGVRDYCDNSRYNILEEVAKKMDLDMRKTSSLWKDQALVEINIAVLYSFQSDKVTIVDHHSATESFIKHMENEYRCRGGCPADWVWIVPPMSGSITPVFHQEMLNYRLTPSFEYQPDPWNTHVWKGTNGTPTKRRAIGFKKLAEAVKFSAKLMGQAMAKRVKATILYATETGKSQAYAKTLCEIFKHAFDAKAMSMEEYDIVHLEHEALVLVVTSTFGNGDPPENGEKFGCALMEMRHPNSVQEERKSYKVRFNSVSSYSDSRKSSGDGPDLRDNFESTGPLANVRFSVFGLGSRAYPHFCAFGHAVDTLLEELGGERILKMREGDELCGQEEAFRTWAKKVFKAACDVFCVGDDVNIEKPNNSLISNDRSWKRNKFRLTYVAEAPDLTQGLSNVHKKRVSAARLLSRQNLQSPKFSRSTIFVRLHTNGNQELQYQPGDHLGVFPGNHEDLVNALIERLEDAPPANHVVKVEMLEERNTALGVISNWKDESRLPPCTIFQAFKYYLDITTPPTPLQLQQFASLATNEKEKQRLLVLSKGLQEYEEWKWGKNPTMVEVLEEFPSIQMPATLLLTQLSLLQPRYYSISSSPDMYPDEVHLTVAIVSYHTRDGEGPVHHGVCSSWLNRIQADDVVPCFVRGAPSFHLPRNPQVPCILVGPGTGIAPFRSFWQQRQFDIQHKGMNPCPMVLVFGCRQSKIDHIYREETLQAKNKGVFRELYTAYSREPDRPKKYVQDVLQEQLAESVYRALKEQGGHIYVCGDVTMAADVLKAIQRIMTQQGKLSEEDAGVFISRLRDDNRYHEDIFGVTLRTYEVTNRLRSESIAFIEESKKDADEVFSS
# T2 sequence (P29477 whole entry, canonical isoform): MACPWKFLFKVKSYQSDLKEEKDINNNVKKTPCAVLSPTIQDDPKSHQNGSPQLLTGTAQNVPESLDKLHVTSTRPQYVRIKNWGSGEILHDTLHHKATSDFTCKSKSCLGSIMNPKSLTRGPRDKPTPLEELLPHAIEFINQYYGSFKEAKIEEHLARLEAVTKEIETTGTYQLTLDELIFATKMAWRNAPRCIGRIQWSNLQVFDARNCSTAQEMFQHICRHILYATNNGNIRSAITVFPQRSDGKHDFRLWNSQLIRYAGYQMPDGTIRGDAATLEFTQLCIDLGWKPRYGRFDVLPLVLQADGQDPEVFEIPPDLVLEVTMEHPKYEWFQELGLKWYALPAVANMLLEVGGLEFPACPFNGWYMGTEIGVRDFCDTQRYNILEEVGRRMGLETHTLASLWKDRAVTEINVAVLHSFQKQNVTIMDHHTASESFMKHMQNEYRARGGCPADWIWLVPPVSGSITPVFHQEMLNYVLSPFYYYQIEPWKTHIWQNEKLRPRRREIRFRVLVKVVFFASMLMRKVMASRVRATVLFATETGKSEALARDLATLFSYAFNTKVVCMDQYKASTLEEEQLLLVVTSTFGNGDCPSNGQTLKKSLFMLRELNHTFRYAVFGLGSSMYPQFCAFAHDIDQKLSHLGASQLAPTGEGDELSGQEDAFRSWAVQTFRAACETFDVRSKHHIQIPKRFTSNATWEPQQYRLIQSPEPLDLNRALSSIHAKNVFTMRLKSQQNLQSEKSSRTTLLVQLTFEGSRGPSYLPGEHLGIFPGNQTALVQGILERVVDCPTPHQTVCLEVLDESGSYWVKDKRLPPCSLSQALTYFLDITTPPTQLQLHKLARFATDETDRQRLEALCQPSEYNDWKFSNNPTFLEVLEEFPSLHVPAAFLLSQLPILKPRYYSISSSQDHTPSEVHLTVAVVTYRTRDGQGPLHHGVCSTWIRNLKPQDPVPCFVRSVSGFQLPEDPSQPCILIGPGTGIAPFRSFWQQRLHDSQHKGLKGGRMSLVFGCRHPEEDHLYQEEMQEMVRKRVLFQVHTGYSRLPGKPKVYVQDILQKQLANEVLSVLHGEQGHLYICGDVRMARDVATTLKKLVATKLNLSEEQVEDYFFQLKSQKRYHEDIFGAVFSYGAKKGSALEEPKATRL
Molecule,inhibition at 100 µM (Type I (rat brain) NOS) [%],IC50 (Type I (rat brain) NOS) [µM],inhibition at 100 µM (Type II (macrophage) NOS) [%],IC50 (Type II (macrophage) NOS) [µM],cGMP accumulation (bovine coronary artery; accompanying relaxation of bovine coronary artery),relaxation of bovine coronary artery (bovine coronary artery),substrate for the NO synthase enzyme (NO synthase enzyme),EDRF (NO) production (EDRF (NO) production)
"COc1ccc([N+](=O)[O-])c(NCCC[C@H](N)C(=O)O)c1 [Example 5, (2S)-2-amino-5-(5-methoxy-2-nitrophenylamino)pentanoic acid]",68,20,46,100,,,,
"N#Cc1ccccc1NCCC[C@H](N)C(=O)O [Example 11, (2S)-2-amino-5-(2-cyanophenylamino)pentanoic acid]",6,> 100,50,100,,,,
nitric oxide [nitric oxide (NO)],,,,,cGMP accumulation,potent and transient relaxation,,
"Cc1ccc([N+](=O)[O-])c(NC/C=C/[C@H](N)CO)c1 [Example 3, (2S)-2-amino-5-(5-methyl-2-nitrophenylamino)-pent-3E-en-1-ol]",99,3,,10,,,,
N-hydroxyarginine,,,,,,,substrate,
CNC(=N)NCCCC(N)C(=O)O (centres unmarked) [N^G -methylarginine],,,,,,,,inhibited
"N=C(NCCC[C@H](N)C(=O)O)N[N+](=O)[O-] [NNLA, NNitro-L-arginine, reference compound]",95,,94,7,,,,
"Cc1ccc([N+](=O)[O-])c(NCCC[C@H](N)C(=O)O)c1 [Example 2, (2S)-2-amino-5-(5-methyl-2-nitrophenylamino)pentanoic acid]",88,4,88,10,,,,

# Second part, led by results:
inhibition at 100 µM (Type I (rat brain) NOS) [%],IC50 (Type I (rat brain) NOS) [µM],inhibition at 100 µM (Type II (macrophage) NOS) [%],IC50 (Type II (macrophage) NOS) [µM],Molecule,cGMP accumulation (bovine coronary artery; accompanying relaxation of bovine coronary artery),relaxation of bovine coronary artery (bovine coronary artery),substrate for the NO synthase enzyme (NO synthase enzyme),EDRF (NO) production (EDRF (NO) production)
97,1,95,9,"Cc1ccc([N+](=O)[O-])c(SCCC[C@H](N)C(=O)O)c1 [Example 8, 2(S)-amino-5-(5-methyl-2-nitrophenylthioxy)pentanoic acid]",,,,
91,40,,> 100,"Cc1ccc([N+](=O)[O-])c(NCCCC[C@H](N)C(=O)O)c1 [Example 7, (2S)-2-amino-6-(2-nitro-5-methylphenylamino)hexanoic acid]",,,,
94,3,99,2.5,"Cc1ccc([N+](=O)[O-])c(NCCCC(N)CO)c1 (centres unmarked) [Example 4, 2-amino-5-(5-methyl-2-nitrophenylamino)-1-pentanol]",,,,
58,70,45,100,"Cc1ccc([N+](=O)[O-])c(NCCC[C@@H](N)C(=O)O)c1 [Example 10, (2R)-2-amino-5-(5-methyl-2-nitrophenylamino)pentanoic acid]",,,,
55,100,11,> 100,"N[C@@H](CCCNc1c(Cl)cccc1[N+](=O)[O-])C(=O)O [Example 6, (2S)-2-amino-5-(2-chloro-6-nitrophenylamino)pentanoic acid]",,,,
